Numbers after ± are expanded uncertainties.
Conditions: Liquid, High pressure cell

vapor or sublimation pressure (353.1 K): 181 ± 3 kPa | vapor or sublimation pressure (393.1 K): 635 ± 3 kPa
SMILES: CO [methanol]
